What was measured:
[1] = molecular target: T1, hFASN enzyme (full length) (Homo sapiens, UniProt P49327); assay: Fatty Acid Synthase (FASN) inhibition scintillation proximity assay; type: biochemical; conditions: for inhibition at 10 µM: read-out: Human FASN % inhibition @ 10 μM, 10 μM test compound; for IC50: read-out: Human FASN pIC50 (converted)
T1 construct: 10 μL hFASN enzyme (full length, 300 ng, purified in house); made in house
Procedure, shortened: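 Compounds at 0.01–30 μM were mixed with 300 ng purified full-length enzyme in 100 mM KH2PO4 pH 7.5, 1 mM DTT. Substrates ³H-acetyl-CoA and malonyl-CoA were then converted, and bead addition stopped the reaction. Signal was normalised to low and high plate controls and fitted by 4-parameter nonlinear regression.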

A2780 ovarian cells [2] = assay: A2780 ovarian cell proliferation assay in lipid reduced medium, with palmitate (MTT); type: cell-based; conditions: Homo sapiens, A2780, 96 h; read-out: pIC50 A2780 Ovarian Cell, With Palmitate (converted)
Procedure, shortened: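 Seeded cells were switched next day to lipid-reduced serum, exposed to compound and 25 μM palmitate complexed with fatty-acid-free BSA, and incubated 96 h. Proliferation was then determined by MTT absorbance at 544 nm, with a best-fit curve of signal against concentration.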

A2780 ovarian cells [3] = assay: A2780 ovarian cell proliferation assay in lipid reduced medium, without palmitate (MTT); type: cell-based; conditions: Homo sapiens, A2780, 96 h; read-out: pIC50 A2780 Ovarian Cell, Without Palmitate (converted)

T1 sequence (P49327 whole entry): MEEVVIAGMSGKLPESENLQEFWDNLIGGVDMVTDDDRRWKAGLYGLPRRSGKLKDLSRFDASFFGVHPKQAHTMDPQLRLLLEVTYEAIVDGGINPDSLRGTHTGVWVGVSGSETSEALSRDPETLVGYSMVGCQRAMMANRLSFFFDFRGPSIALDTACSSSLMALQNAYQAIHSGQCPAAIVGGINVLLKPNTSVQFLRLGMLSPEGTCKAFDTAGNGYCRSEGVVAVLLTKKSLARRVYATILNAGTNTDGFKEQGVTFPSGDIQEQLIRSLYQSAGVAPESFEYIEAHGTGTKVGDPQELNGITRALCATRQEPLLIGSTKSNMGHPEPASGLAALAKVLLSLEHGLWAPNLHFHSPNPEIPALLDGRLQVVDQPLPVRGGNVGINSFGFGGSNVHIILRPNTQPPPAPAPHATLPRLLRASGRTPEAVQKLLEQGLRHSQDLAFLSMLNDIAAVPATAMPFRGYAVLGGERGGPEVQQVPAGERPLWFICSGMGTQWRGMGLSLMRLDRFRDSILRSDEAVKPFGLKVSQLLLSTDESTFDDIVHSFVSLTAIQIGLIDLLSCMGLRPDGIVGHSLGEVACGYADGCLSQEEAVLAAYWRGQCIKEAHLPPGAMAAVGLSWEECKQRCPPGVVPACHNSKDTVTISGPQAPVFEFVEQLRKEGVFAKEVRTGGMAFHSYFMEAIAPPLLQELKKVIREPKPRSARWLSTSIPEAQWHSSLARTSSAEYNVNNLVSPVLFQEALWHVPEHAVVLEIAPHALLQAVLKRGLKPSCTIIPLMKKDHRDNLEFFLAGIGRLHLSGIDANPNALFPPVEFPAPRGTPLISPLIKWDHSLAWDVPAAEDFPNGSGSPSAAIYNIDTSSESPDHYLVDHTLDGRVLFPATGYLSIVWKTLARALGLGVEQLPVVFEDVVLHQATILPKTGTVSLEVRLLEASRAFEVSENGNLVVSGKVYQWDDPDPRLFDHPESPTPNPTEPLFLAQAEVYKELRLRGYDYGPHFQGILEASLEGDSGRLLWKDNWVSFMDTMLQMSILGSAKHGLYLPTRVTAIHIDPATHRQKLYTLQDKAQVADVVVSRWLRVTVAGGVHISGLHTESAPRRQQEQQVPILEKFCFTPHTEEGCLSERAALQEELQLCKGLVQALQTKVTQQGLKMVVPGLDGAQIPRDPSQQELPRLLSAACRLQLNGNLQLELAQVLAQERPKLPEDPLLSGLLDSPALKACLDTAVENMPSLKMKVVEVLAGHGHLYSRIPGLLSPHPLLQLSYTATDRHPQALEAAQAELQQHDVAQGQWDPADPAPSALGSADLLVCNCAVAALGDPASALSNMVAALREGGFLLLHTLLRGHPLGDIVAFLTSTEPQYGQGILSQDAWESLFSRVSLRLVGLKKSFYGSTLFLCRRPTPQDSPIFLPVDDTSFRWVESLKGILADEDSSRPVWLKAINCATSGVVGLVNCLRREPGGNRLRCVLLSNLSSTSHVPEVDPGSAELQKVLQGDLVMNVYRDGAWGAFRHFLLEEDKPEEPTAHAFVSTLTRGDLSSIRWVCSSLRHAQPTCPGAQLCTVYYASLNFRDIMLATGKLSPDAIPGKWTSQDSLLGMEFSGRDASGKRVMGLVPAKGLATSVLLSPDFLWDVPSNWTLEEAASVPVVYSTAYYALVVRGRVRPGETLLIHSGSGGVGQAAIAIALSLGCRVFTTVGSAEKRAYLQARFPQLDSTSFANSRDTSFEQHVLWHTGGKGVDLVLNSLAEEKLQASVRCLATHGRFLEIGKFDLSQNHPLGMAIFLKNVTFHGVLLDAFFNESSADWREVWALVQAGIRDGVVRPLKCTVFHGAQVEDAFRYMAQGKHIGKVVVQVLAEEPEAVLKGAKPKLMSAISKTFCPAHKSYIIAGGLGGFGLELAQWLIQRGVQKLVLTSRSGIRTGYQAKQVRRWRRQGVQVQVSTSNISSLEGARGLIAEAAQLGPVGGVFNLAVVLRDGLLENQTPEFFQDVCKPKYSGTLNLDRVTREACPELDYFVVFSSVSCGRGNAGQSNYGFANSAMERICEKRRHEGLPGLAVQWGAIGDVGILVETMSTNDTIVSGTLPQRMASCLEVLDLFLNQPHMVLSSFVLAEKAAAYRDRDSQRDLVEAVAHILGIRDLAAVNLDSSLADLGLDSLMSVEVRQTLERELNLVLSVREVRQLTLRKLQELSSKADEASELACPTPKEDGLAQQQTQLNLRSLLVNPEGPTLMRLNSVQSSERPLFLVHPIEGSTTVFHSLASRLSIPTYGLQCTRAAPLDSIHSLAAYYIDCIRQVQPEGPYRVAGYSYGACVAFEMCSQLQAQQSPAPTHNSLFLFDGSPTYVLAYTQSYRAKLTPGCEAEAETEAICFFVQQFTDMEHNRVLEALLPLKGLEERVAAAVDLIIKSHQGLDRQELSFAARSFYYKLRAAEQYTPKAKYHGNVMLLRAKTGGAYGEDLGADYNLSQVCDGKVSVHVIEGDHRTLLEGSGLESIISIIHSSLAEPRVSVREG

SMILES	inhibition at 10 µM [1]	IC50 [1]	IC50 (A2780 ovarian cells [2])	IC50 (A2780 ovarian cells [3])
Cc1cc(-c2nc3cc(Br)ccc3cc2C)ccc1C1=NC2(CC2)C(=O)N1CC1CN(C(=O)C2(C)CC2)C1 [compound 787, 5-(4-(7-bromo-3-methylquinolin-2-yl)-2-methylphenyl)-6-((1-(1-methylcyclopropanecarbonyl)azetidin-3-yl)methyl)-4,6-diazaspiro[2.4]hept-4-en-7-one]	38%	> 10 µM	> 10 µM	9.33 µM
COc1ccc2cc(-c3ccc(C4=NC5(CC5)C(=O)N4CC4CN(C(=O)C5(O)CC5)C4)c(F)c3)ccc2c1 [compound 366, 5-(2-fluoro-4-(6-methoxynaphthalen-2-yl)phenyl)-6-((1-(1-hydroxycyclopropanecarbonyl)azetidin-3-yl)methyl)-4,6-diazaspiro[2.4]hept-4-en-7-one]	89%	0.0617 µM	0.562 µM	~0.00562 µM
O=C(N1CCC(CN2C(=O)C3(CCOC3)N=C2c2ccc(-c3ccc4occc4c3)cc2)C1)C(F)(F)F (centres unmarked) [compound 938, 2-(4-(benzofuran-5-yl)phenyl)-3-((1-(2,2,2-trifluoroacetyl)pyrrolidin-3-yl)methyl)-7-oxa-1,3-diazaspiro[4.4]non-1-en-4-one]	43%	> 10 µM	> 10 µM	7.94 µM
COC(=O)N1CC[C@@H](CN2C(=O)C3(CN(C(=O)OC)C3)N=C2c2ccc(-c3ccc4cccnc4c3)cc2)C1 [compound 963, (S)-methyl 7-((1-(methoxycarbonyl)pyrrolidin-3-yl)methyl)-8-oxo-6-(4-(quinolin-7-yl)phenyl)-2,5,7-triazaspiro[3.4]oct-5-ene-2-carboxylate]	62%	~10.2 µM	> 10 µM	> 10 µM
COC(=O)N1CC2(C1)N=C(c1ccc(-c3ccc(-c4cnn(C)c4)cc3)cc1)N(C[C@@H]1CCN(S(C)(=O)=O)C1)C2=O [compound 891, (S)-methyl 6-(4′-(1-methyl-1H-pyrazol-4-yl)-[1,1′-biphenyl]-4-yl)-7-((1-(methylsulfonyl)pyrrolidin-3-yl)methyl)-8-oxo-2,5,7-triazaspiro]3.4[ovt-5-ene-2-carboxylate]	8%	> 10 µM	> 10 µM	> 10 µM
Cc1ccc2c(-c3ccc(C4=NC5(CC5)C(=O)N4CC4CN(C(=O)C5(C)CC5)C4)c(C)c3)cccc2n1 [compound 603, 6-({1-[(1-Methylcyclopropyl)carbonyl]azetidin-3-yl}methyl)-5-[2-methyl-4-(2-methylquinolin-5-yl)phenyl]-4,6-diazaspiro[2.4]hept-4-en-7-one]	87%	1.15 µM	> 10 µM	~3.31 µM
COC(=O)N1CC[C@@H](CN2C(=O)C3(CCOCC3)N=C2c2ccc(-c3ccc4cccnc4c3)cc2)C1 [compound 664, Methyl (3S)-3-{[4-oxo-2-(4-quinolin-7-ylphenyl)-8-oxa-1,3-diazaspiro[4.5]dec-1-en-3-yl]methyl}pyrrolidine-1-carboxylate]	87%	3.72 µM	> 10 µM	~2.88 µM
O=C(C1CC1)N1CC[C@@H](CN2C(=O)C3(CCCC3)N=C2c2ccc(-c3ccc(Cl)cc3)cc2F)C1 [compound 121, 2-(4′-Chloro-3-fluorobiphenyl-4-yl)-3-{[(3R)-1-(cyclopropylcarbonyl)pyrrolidin-3-yl]methyl}-1,3-diazaspiro[4.4]non-1-en-4-one]	115%	0.0912 µM	> 10 µM	2.19 µM
COC(=O)N1CC2(C1)N=C(c1ccc(-c3ccc4cccnc4c3)cc1)N(C[C@@H]1CCN(S(C)(=O)=O)C1)C2=O [compound 900, (S)-methyl 7-((1-(methylsulfionyl)pyrrolidin-3-yl)methyl)-8-oxo-6-(4-(quinolin-7-yl)phenyl)-2,5,7-triazaspiro[3.4]oct-5-ene-2-carboxylate]	9%	> 10 µM	> 10 µM	> 10 µM
CC(C)S(=O)(=O)c1cccc(-c2ccc(C3=NC4(CC4)C(=O)N3CC3CN(C(=O)C4CC4)C3)c(F)c2)c1 [compound 631, 6-{[1-(Cyclopropylcarbonyl)azetidin-3-yl]methyl}-5-{3-fluoro-3′-[(1-methylethyl)sulfonyl]biphenyl-4-yl}-4,6-diazaspiro[2.4]hept-4-en-7-one]	47%	8.51 µM	> 10 µM	5.89 µM

The next lines start with the values.

inhibition at 10 µM [1]	IC50 [1]	IC50 (A2780 ovarian cells [2])	IC50 (A2780 ovarian cells [3])	SMILES
107%	0.49 µM	7.59 µM	0.933 µM	Cn1ncc2cc(-c3ccc(C4=NC5(CCN(CCO)CC5)C(=O)N4C[C@@H]4CCN(C(=O)C5CC5)C4)cc3)ccc21 [compound 127, (R)-3-((1-(Cyclopropanecarbonyl)pyrrolidin-3-yl)methyl)-8-(2-hydroxyethyl)-2-(4-(1-methyl-1H-indazol-5-yl)phenyl)-1,3,8-triazaspiro[4.5]dec-1-en-4-one]
46%	~10 µM	> 10 µM	> 10 µM	N#Cc1ccc2ccc(-c3ccc(C4=NC5(CC5)C(=O)N4CC4CN(C(=O)C5CC5)C4)cc3)cc2n1 [compound 611, 7-[4-(6-{[1-(Cyclopropylcarbonyl)azetidin-3-yl]methyl}-7-oxo-4,6-diazaspiro[2.4]hept-4-en-5-yl)phenyl]quinolin-2-carbonitrile]
65%	4.17 µM	> 10 µM	~5.25 µM	Cc1cc(C)c2ccc(-c3ccc(C4=NC5(CC5)C(=O)N4CC4CN(C(=O)C5CC5)C4)cc3)cc2n1 [compound 570, 6-{[1-(Cyclopropylcarbonyl)azetidin-3-yl]methyl}-5-[4-(2,4-dimetrhylquinolin-7-yl)phenyl]-4,6-diazaspiro[2.4]hept-4-en-7-one]
53%		7.76 µM	6.61 µM	Cc1cc(Cl)c2ccc(-c3ccc(C4=NC5(CC5)C(=O)N4CC4CN(C(=O)C5CC5)C4)cc3)cc2n1 [compound 535, 5-[4-(4-Chloro-2-methylquinolin-7-yl)phenyl]-6-{[1-(cyclopropylcarbonyl)azetidin-3-yl]methyl}-4,6-diazaspiro[2.4]hept-4-en-7-one]
61%	5.25 µM	> 10 µM	5.89 µM	O=C(C1CC1)N1CC(CN2C(=O)C3(CC3)N=C2c2ccc(-c3ccc4c(cnn4CCO)c3)cc2)C1 [compound 556, 6-{[1-(Cyclopropylcarbonyl)azetidin-3-yl]methyl}-5-{4-[1-(2-hydroxyethyl)-1H-indazol-5-yl]phenyl}-4,6-diazaspiro[2.4]hept-4-en-7-one]
68%	3.72 µM	> 10 µM	~7.59 µM	O=C(C1CC1)N1CC(CN2C(=O)C3(CC3)N=C2c2ccc(-c3cnc4c(F)cccc4c3)cc2)C1 [compound 560, 6-{[1-(Cyclopropylcarbonyl)azetidin-3-yl]methyl}-5-[4-(8-fluoroquinolin-3-yl)phenyl]-4,6-diazaspiro[2.4]hept-4-en-7-one]
75%	1.86 µM	> 10 µM	~5.13 µM	Cc1cc2ccc(-c3ccc(C4=NC5(CC5)C(=O)N4CC4CN(C(=O)C5CC5)C4)cc3)cc2nc1Cl [compound 555, 5-[4-(2-Chloro-3-methylquinolin-7-yl)phenyl]-6-{[1-(cyclopropylcarbonyl)azetidin-3-yl]methyl}-4,6-diazaspiro[2.4]hept-4-en-7-one]
83%	1.15 µM	> 10 µM	2.19 µM	Cc1nc2ccc(-c3ccc(C4=NC5(CC5)C(=O)N4CC4CN(C(=O)C5CC5)C4)c(F)c3)cc2n1C [compound 654, 6-{[1-(Cyclopropylcarbonyl)azetidin-3-yl]methyl}-5-[4-(1,2-dimethyl-1H-benzimidazol-6-yl)-2-fluorophenyl]-4,6-diazaspiro[2.4]hept-4-en-7-one]
91.7%	0.562 µM	> 10 µM	4.47 µM	O=C(C1CC1)N1CCC2(CC1)N=C(c1ccc(-c3ccc4occc4c3)cc1)N(CC1CN(C(=O)C3CC3)C1)C2=O [compound 134, 2-[4-(1-Benzofuran-5-yl)phenyl]-8-(cyclopropylcarbonyl)-3-{[1-(cyclopropylcarbonyl)azetidin-3-yl]methyl}-1,3,8-triazaspiro[4.5]dec-1-en-4-one]
85%	1.35 µM	> 10 µM	2.75 µM	O=C(C1CC1)N1CC(CN2C(=O)C3(CC3)N=C2c2ccc(-c3cc4cn(CCO)nc4cc3F)cc2)C1 [compound 553, 6-{[1-(Cyclopropylcarbonyl)azetidin-3-yl]methyl}-5-{4-[6-fluoro-2-(2-hydroxyethyl)-2H-indazol-5-yl]phenyl}-4,6-diazaspiro[2.4]hept-4-en-7-one]
112%	0.123 µM	~10 µM	0.234 µM	O=C(C1CC1)N1CC[C@@H](CN2C(=O)C3(CC3)N=C2c2ccc(-c3ccc(-c4cccnc4)cc3)cc2)C1 [compound 122, 6-{[(3R)-1-(Cyclopropylcarbonyl)pyrrolidin-3-yl]methyl}-5-(4′-pyridin-3-ylbiphenyl-4-yl)-4,6-diazaspiro[2.4]hept-4-en-7-one]

Reference: US10077261B2, “Imidazolin-5-one derivative useful as FASN inhibitors for the treatment of cancer” (Janssen Pharmaceutica NV, priority 2012, dated 2018)
